Laboratory results published in patent US20230126310A1 (priority 2020, published 2023).
Counter-ions that a name gives are not always drawn. Numbered stars: 1 amine (or outer) side, 2 acyl side, 3 side chain; on linkers, the order of the positions; unused ones are H or OH. Bridge positions count the residues as written; N and C are the ends. Square brackets hold non-standard residues; d marks the D form. Peptide text beside a SMILES is read from it. I, II: the chains in the order shown. Actinocin(9to1) = Cc1c2oc3c(C)ccc(C(=O)[*:1])c3nc-2c(C(=O)[*:2])c(N)c1=O; NMeV = CN[C@H](C(=O)O)C(C)C; Sar = CNCC(=O)O

tested on: SARS-CoV-2; assay: microbe, parasite or virus in culture; conditions: Severe acute respiratory syndrome coronavirus 2, Caco-2, 48 h

Row | Structure (SMILES) | IC50 [µM]
1 | O=C(NCc1ccncc1)C12CC3CC(C1)CC(c1ccc(Cl)cc1)(C3)C2 [ABC294640] | 38.2
2 | COC(=O)C1=C(C)NC(C)=C(C(=O)O[C@H]2CCN(Cc3ccccc3)C2)[C@H]1c1cccc([N+](=O)[O-])c1 [Barnidipine HCl] | 24.3
3 | Cc1nc(C#Cc2ccnc(Cl)c2)c(C)n1-c1ccc(F)cc1 [Basimglurant] | 25.2
4 | N#CC(c1ccnc(OCc2ccc(CN3CCOCC3)cc2)n1)c1nc2ccccc2s1 (stereo not drawn) [Bentamapimod] | 5.12
5 | CCNC1=Nc2ccc(Cl)cc2C(C)(c2ccccc2)O1 (stereo not drawn) [Etifoxine (hydrochloride)] | 9.29
6 | Cc1cc(C)c2c(c1)[C@@H](N(Cc1cc(C(F)(F)F)cc(C(F)(F)F)c1)c1nnn(C)n1)CCCN2C[C@H]1CC[C@H](C(=O)O)CC1 [Evacetrapib (LY2484595), Evacetrapib] | 26.7

same assay, conditions: Severe acute respiratory syndrome coronavirus 2, Caco-2, 48 h, read-out: % Inh. (% Inhibition of SARS-CoV-2)

Row | Structure (SMILES) | inhibition at 10 µM [%]
7 | CCCn1c(=O)c2[nH]c(-c3ccccc3)nc2n(CCC)c1=O [1,3-dipropyl-8-phenylxanthine] | 57.2
8 | COc1cc(CN2CCN(c3ccc(F)cc3)CC2)cc(OC)c1OC [1-(4-fluorophenyl)-4-(3,4,5-trimethoxybenzyl)piperazine] | 67.3
9 | OC[C@H]1O[C@@H](n2cnc3c(NC4CCCC4)nc(Cl)nc32)[C@H](O)[C@@H]1O [2-chloro-N6-cyclopentyladenosine] | 57.7
10 | Nc1nc(Cl)nc2c1ncn2[C@@H]1O[C@H](CO)[C@@H](O)[C@H]1O [2-chloroadenosine] | 72.5
11 | O=C(NCc1ccncc1)C12CC3CC(C1)CC(c1ccc(Cl)cc1)(C3)C2 [ABC294640] | 81.4
12 | CN(C)CC[C@H](CSc1ccccc1)Nc1ccc(S(=O)(=O)NC(=O)c2ccc(N3CCN(Cc4ccccc4-c4ccc(Cl)cc4)CC3)cc2)cc1[N+](=O)[O-] [ABT-737] | 63.1
13 | COc1ccc(S(=O)(=O)N2CCC[C@H]2C(=O)Nc2cc(C)cc(C)c2)cc1 [ACT-462206] | 53.8
14 | CCN1CCN(Cc2ccc(-c3cc4c(N[C@H](C)c5ccccc5)ncnc4[nH]3)cc2)CC1 [AEE788] | 90.9
15 | CC(=O)NC(Cc1ccccc1)C(=O)O (stereo not drawn) [AFALANINE] | 62.1
16 | Cn1c(NC[C@@H](N)Cc2ccccc2)nc(-c2ccncc2)c(-c2ccc3ccccc3c2)c1=O [AMG-548] | 89
17 | Nc1c2ccccc2nc2ccccc12 [AMINACRINE] | 64.1
18 | CCN(CC)Cc1cc(Nc2ccnc3cc(Cl)ccc23)ccc1O [AMODIAQUINE DIHYDROCHLORIDE] | 78.8
19 | COc1ccc(-n2nc(C(N)=O)c3c2C(=O)N(c2ccc(N4CCCCC4=O)cc2)CC3)cc1 [APIXABAN] | 78
20 | COc1cc(N2CCC(N3CCN(C)CC3)CC2)ccc1Nc1ncnc(Nc2ccccc2S(=O)(=O)C(C)C)n1 [ASP3026] | 62.2
21 | Cc1ccc(Oc2ccccc2-c2csc(N=C3NCCCN3)n2)c(C)c1 [Abafungin] | 92.9
22 | CC(=O)CC(c1ccc([N+](=O)[O-])cc1)c1c(O)c2ccccc2oc1=O (stereo not drawn) [Acenocoumarin] | 64.2
23 | Cc1ccccc1-n1c(CF)nc2ccc(N)cc2c1=O [Afloqualone] | 50.1
24 | CCCCC(CC)CNC(=N)NC(=N)NCCCCCCNC(=N)NC(=N)NCC(CC)CCCC (stereo not drawn) [Alexidine dihydrochloride] | 76.3
25 | N#CC1(c2ccc(NC(=O)c3cccnc3NCc3ccncc3)cc2)CCCC1 [Apatinib mesylate] | 70.9
26 | Cc1c(CN2CCN(C(=O)[C@H](C)O)CC2)sc2c(N3CCOCC3)nc(-c3cnc(N)nc3)nc12 [Apitolisib (GDC-0980, RG7422), Apitolisib] | 102
27 | C[N+](C)(C)CC(=O)O [BETAINE HYDROCHLORIDE] | 95.7

Row | Structure (SMILES) | inhibition at 10 µM [%]
28 | C[C@H]1C[C@H]2[C@@H]3CCC4=CC(=O)C=C[C@]4(C)[C@@]3(F)[C@@H](O)C[C@]2(C)[C@@]1(O)C(=O)CO [BETAMETHASONE] | 50.6
29 | CN1CCC(Nc2ncc3ncnc(Nc4ccc(F)c(Cl)c4)c3n2)CC1 [BIBX-1382] | 79.3
30 | c1ccc(-c2ccc(C(c3ccccc3)n3ccnc3)cc2)cc1 (stereo not drawn) [BIFONAZOLE] | 70.8
31 | CCCCNc1cc(C(=O)O)cc(S(N)(=O)=O)c1Oc1ccccc1 [BUMETANIDE] | 87.5
32 | Clc1ccc(CCC(Cn2ccnc2)Sc2c(Cl)cccc2Cl)cc1 (stereo not drawn) [BUTOCONAZOLE] | 70.6
33 | CC1(C)CC[C@]2(C(=O)O)CC[C@]3(C)[C@H](C(=O)C=C4[C@@]5(C)C=C(C#N)C(=O)C(C)(C)[C@@H]5CC[C@]43C)[C@@H]2C1 [Bardoxolone] | 66
34 | COC(=O)C1=C(C)NC(C)=C(C(=O)O[C@H]2CCN(Cc3ccccc3)C2)[C@H]1c1cccc([N+](=O)[O-])c1 [Barnidipine HCl] | 83.5
35 | N#CC(c1ccnc(OCc2ccc(CN3CCOCC3)cc2)n1)c1nc2ccccc2s1 (stereo not drawn) [Bentamapimod] | 78.4
36 | CCCCCCCCCCCCCCCC[N+](C)(C)Cc1ccccc1 [Benzyldimethylhexadecylammonium chloride hydrate] | 57
37 | COc1ccc(CCNCC(O)COc2cccc(C)c2)cc1OC (stereo not drawn) [Bevantolol HCl] | 77.1
38 | Nc1cc(C(F)(F)F)c(-c2nc(N3CCOCC3)nc(N3CCOCC3)n2)cn1 [Bimiralisib] | 97.2
39 | Cc1c(-c2ccc(-c3ccccc3F)cc2)nc2ccc(F)cc2c1C(=O)O [Brequinar sodium salt hydrate] | 61
40 | CCN1C(=O)CNc2ncc(-c3ccc(-c4nc[nH]n4)nc3C)nc21 [CC-115] | 96.6
41 | [H]/N=C(\N/C(=N/[H])NCCCCCCNC(=N)NC(=N)Nc1ccc(Cl)cc1)Nc1ccc(Cl)cc1 [CHLORHEXIDINE DIHYDROCHLORIDE] | 86.4
42 | CN(C)CC/C=C1/c2ccccc2Sc2ccc(Cl)cc21 [CHLORPROTHIXENE HYDROCHLORIDE] | 55.6
43 | Cc1cc(C(C#N)c2ccc(Cl)cc2)c(Cl)cc1NC(=O)c1cc(I)cc(I)c1O (stereo not drawn) [CLOSANTEL] | 80
44 | Clc1ccccc1C(c1ccccc1)(c1ccccc1)n1ccnc1 [CLOTRIMAZOLE] | 81.7
45 | C[C@@H]([C@@H](O)c1ccc(O)cc1)N1CCC(O)(c2ccccc2)CC1 [CP 101606] | 54.3
46 | CCC[C@H](Nc1nc(-c2ccc(NC(=O)NCC)c(OC)c2)ncc1C)c1cccnc1 [CYT997] | 58.6
47 | NCCC(=O)N[C@@H](Cc1cnc[nH]1)C(=O)O [Carnosine] | 94.3
48 | CC(=O)OCC1=C(C(=O)O)N2C(=O)[C@@H](NC(=O)Cc3cccs3)[C@H]2SC1 [Cephalothin] | 53.7

Row | Structure (SMILES) | inhibition at 10 µM [%]
49 | Cc1cc(Nc2ncc(Cl)c(Nc3ccccc3S(=O)(=O)C(C)C)n2)c(OC(C)C)cc1C1CCNCC1 [Ceritinib] | 60
50 | CNCCCOc1cc(F)c(-c2c(Cl)nc3ncnn3c2N[C@@H](C)C(F)(F)F)c(F)c1 [Cevipabulin] | 53.6
51 | O=C(c1ccc(F)c(F)c1Nc1ccc(I)cc1F)N1CC(O)([C@@H]2CCCCN2)C1 [Cobimetinib] | 61.6
52 | Cc1c2oc3c(C)ccc(C(=O)N[C@@H]4C(=O)N[C@H](C(C)C)C(=O)N5CCC[C@H]5C(=O)N(C)CC(=O)N(C)[C@@H](C(C)C)C(=O)O[C@@H]4C)c3nc-2c(C(=O)N[C@@H]2C(=O)N[C@H](C(C)C)C(=O)N3CCC[C@H]3C(=O)N(C)CC(=O)N(C)[C@@H](C(C)C)C(=O)O[C@@H]2C)c(N)c1=O [DACTINOMYCIN] (I: T[dV]P[Sar][NMeV] / II: T[dV]P[Sar][NMeV]; ester I:1-I:C, II:1-II:C; linker I:N-II:N via Actinocin(9to1)) | 74.6
53 | CNC(=O)c1cc(Oc2ccc(NC(=O)Nc3cc(C(C)(C)C)nn3-c3ccc4ncccc4c3)c(F)c2)ccn1 [DCC-2036 (Rebastinib), Rebastinib] | 70
54 | Cc1cc(N)c2ccccc2[n+]1CCCCCCCCCC[n+]1c(C)cc(N)c2ccccc21 [DEQUALINIUM CHLORIDE] | 65.6
55 | C[C@H]1O[C@@H](O[C@H]2[C@@H](O)C[C@H](O[C@H]3[C@@H](O)C[C@H](O[C@H]4CC[C@@]5(C)[C@H](CC[C@@H]6[C@@H]5C[C@@H](O)[C@]5(C)[C@@H](C7=CC(=O)OC7)CC[C@]65O)C4)O[C@@H]3C)O[C@@H]2C)C[C@H](O)[C@@H]1O [DIGOXIN] | 70.6
56 | COc1cc2ncnc(Nc3ccc(F)c(Cl)c3)c2cc1NC(=O)/C=C/CN1CCCCC1 [Dacomitinib (PF299804, PF-00299804), Dacomitinib] | 85.5
57 | Cn1c(=O)n(-c2ccc(C(C)(C)C#N)cc2)c2c3cc(-c4cnc5ccccc5c4)ccc3ncc21 [Dactolisib (BEZ235, NVP-BEZ235), Dactolisib] | 91.8
58 | Cc1nc(Nc2ncc(C(=O)Nc3c(C)cccc3Cl)s2)cc(N2CCN(CCO)CC2)n1 [Dasatinib] | 52.7
59 | O=C(O)c1ccc(OCCn2ccnc2)cc1 [Dazoxiben] | 56
60 | C[C@]12CC[C@H](O)C[C@H]1CC[C@@H]1[C@@H]2C[C@@H](O)[C@]2(C)[C@@H](C3=CC(=O)OC3)CC[C@]12O [Digoxigenin] | 66.8
61 | CCc1cnn2c(NCc3ccc[n+]([O-])c3)cc(N3CCCC[C@H]3CCO)nc12 [Dinaciclib (SCH727965), Dinaciclib] | 79.4
62 | Clc1ccc(COC(Cn2ccnc2)c2ccc(Cl)cc2Cl)cc1 (stereo not drawn) [ECONAZOLE NITRATE] | 87.3
63 | CS[C@H]1SC[C@H]2C(=O)N(C)[C@@H](C(C)C)C(=O)OC[C@@H](NC(=O)c3cnc4ccccc4n3)C(=O)N[C@@H](C)C(=O)N(C)[C@@H]1C(=O)N(C)[C@@H](C(C)C)C(=O)OC[C@@H](NC(=O)c1cnc3ccccc3n1)C(=O)N[C@@H](C)C(=O)N2C [Echinomycin] | 77.5
64 | CN1CCN(c2ccc(C(=O)Nc3n[nH]c4ccc(Cc5cc(F)cc(F)c5)cc34)c(NC3CCOCC3)c2)CC1 [Entrectinib (RXDX-101), Entrectinib] | 70
65 | Cc1cc(C)c2c(c1)[C@@H](N(Cc1cc(C(F)(F)F)cc(C(F)(F)F)c1)c1nnn(C)n1)CCCN2C[C@H]1CC[C@H](C(=O)O)CC1 [Evacetrapib (LY2484595), Evacetrapib] | 94.9
66 | CCOC(=O)C1=C(C)NC(C)=C(C(=O)OC)C1c1cccc(Cl)c1Cl (stereo not drawn) [FELODIPINE] | 51.2
67 | O=C(/C=C/c1cccnc1)NCCCCC1CCN(C(=O)c2ccccc2)CC1 [FK-866] | 50.9
68 | Clc1ccc(C(Cn2ccnc2)OCc2ccc(Sc3ccccc3)cc2)c(Cl)c1 (stereo not drawn) [Fenticonazole nitrate] | 105
69 | c1ccc(OCc2ccc(CCCN3CCOCC3)cc2)cc1 [Fomocain] | 61.1

same assay, conditions: Severe acute respiratory syndrome coronavirus 2, Caco-2, 48 h, read-out: pIC50 (converted)

Row | Structure (SMILES) | IC50 [µM]
70 | O=C(NCc1ccncc1)C12CC3CC(C1)CC(c1ccc(Cl)cc1)(C3)C2 [ABC294640] | 38
71 | COC(=O)C1=C(C)NC(C)=C(C(=O)O[C@H]2CCN(Cc3ccccc3)C2)[C@H]1c1cccc([N+](=O)[O-])c1 [Barnidipine HCl] | 24.5
72 | Cc1nc(C#Cc2ccnc(Cl)c2)c(C)n1-c1ccc(F)cc1 [Basimglurant] | 25.1
73 | N#CC(c1ccnc(OCc2ccc(CN3CCOCC3)cc2)n1)c1nc2ccccc2s1 (stereo not drawn) [Bentamapimod] | 5.13
74 | CCNC1=Nc2ccc(Cl)cc2C(C)(c2ccccc2)O1 (stereo not drawn) [Etifoxine (hydrochloride)] | 9.33
75 | Cc1cc(C)c2c(c1)[C@@H](N(Cc1cc(C(F)(F)F)cc(C(F)(F)F)c1)c1nnn(C)n1)CCCN2C[C@H]1CC[C@H](C(=O)O)CC1 [Evacetrapib (LY2484595), Evacetrapib] | 26.9
